Values quoted from earlier work as cited in US20080193567A1, “Pharmaceutical Canscora Diffusa-Containing Composition” (priority 2004, published 2008).

Key:
[1] = animal experiments
[2] = tested on: Mycobacterium tuberculosis
[3] = interpreted as an effect against stress and anxiety

| Compound | spermicidal effect [1] | effect against Mycobacterium tuberculosis [2] | adaptogenic effect [3] |
| --- | --- | --- | --- |
| O=c1c2cc(O)c(O)cc2oc2cc(O)c([C@@H]3O[C@H](CO)[C@@H](O)[C@H](O)[C@H]3O)c(O)c12 [magniferin] | spermicidal effect | small effect | – |
| COc1ccc([C@@H]2CCc3c(O[C@@H]4OC(CO)[C@@H](O)[C@H](O)C4O)cc(OC)cc3O2)cc1 (some centres unmarked) [dichotosin] | – | – | “adaptogenic” effect |
| dichotosinin | – | – | “adaptogenic” effect |
| COc1ccc([C@@H]2CCc3c(O[C@@H]4O[C@H](CO)[C@@H](O)[C@H](O)[C@H]4O)cc(O)cc3O2)cc1OC [Diffutin] | – | – | “adaptogenic” effect |
